Data taken from patent US11806393B2, “Flavivirus peptide sequences, epitopes, and methods and uses thereof” (priority 2017, dated 2023).

system: CD8+ T cells; test: IFNγ ELISPOT, ZIKV-infected Ifnar-/- HLA-B*0702 transgenic mice; type: cell-based, mouse; settings: HLA-B*0702 mice, 7 days after 1×10^2 FFU ZIKV FSS13025
Method: (§1) Two ZIKV strains, MR766 (Uganda, 1947) and FSS13025 (Cambodia, 2010), were obtained from the World Reference Center for Emerging Viruses and Arboviruses (WRCEVA). The mouse-adapted DENV2 strain S221 is a triple-plaque purified clone derived from DENV2 D2S1038. Both ZIKV and DENV2 were amplified in C6/36 mosquito cells, and viral titers were measured using baby hamster kidney (BHK)-21 cell-based focus forming assay (FFA). For epitope screening, 5-week old mice (female or male) were infected retro-orbitally (R.O.) with either 1×102 FFU of ZIKV FSS13025 or ZIKV MR766, or 2×10^4 FFU of DENV2 S221 in 200 μl 10% FBS/PBS. Seven days after infection, CD8^+ T cells were isolated from splenocytes and used for ELISPOT assay, while the splenocytes were directly used for ICS assay. Additionally, 5-week old mice were inoculated I.P. with 2×10^3 FFU of DENV2 S221 for 4 weeks.
(§2) CD8^+ T cells were isolated from splenocytes using magnetic bead positive selection (Miltenyi Biotec, Germany) 7 days after virus infection. 2×10^5 CD8^+ T cells were stimulated with 1×10^5 LPS-blasts loaded with 10 μg of individual peptide in 96-well flat-bottom plates (IMMOBILON™-P; Millipore, Bedford, Mass.) that were coated with anti-IFNγ mAb (clone AN18; Mabtech, Stockholm, Sweden) in triplicate. Concanavalin A (ConA) was used as positive control. After 20 hours of incubation, biotinylated anti-mouse IFNγ mAb (R4-6A2; Mabtech), followed by ABC peroxidase (Vector Laboratories, Burlingame, Calif., USA) and then 3-amino-9-ethylcarbazole (Sigma-Aldrich, St. Louis, Mo., USA) were added into the wells. […] A peptide inducing a magnitude of >500 SFCs/10^6 CD8^+ T cells was considered as an immunodominant peptide.
Two independent experiments performed in triplicate were averaged and the error bars represent the SEM. The data are expressed as the mean number of spot forming cells (SFC) per 10^6 CD8^+ T cells. The criteria for positivity were net SFC per 10^6 cells of >20, and a stimulation index of >2.0 when compared with the negative control. Dotted lines represent the cutoff value. * Indicates a positive response. […] ConA denotes Concanavalin A.

| Sequence | SFC/10^6 CD8+ T cells, FSS13025 |
| --- | --- |
| VPRTDNITL [FSS-NS2A133-141] | 786 SFC/10^6 CD8+ T cells |

same assay, conditions: HLA-B*0702 mice, 7 days after 1×10^2 FFU ZIKV MR766

| Sequence | SFC/10^6 CD8+ T cells, MR766 |
| --- | --- |
| LPEIVREAI [FSS/MR-NS3188-196] | 179 SFC/10^6 CD8+ T cells |
| RVCSDHAAL [FSS/MR-NS3581-589] | 411 SFC/10^6 CD8+ T cells |
| VPRTDNITL [FSS-NS2A133-141] | 1182 SFC/10^6 CD8+ T cells |
| VPTGRTTVV (VPTGRTTW) [FSS/MR-NS5539-546] | 121 SFC/10^6 CD8+ T cells |
| VVMILGGFSM [MR-NS2A31-40] | 106 SFC/10^6 CD8+ T cells |

same assay, conditions: HLA-B*0702 mice; immunodominant: >500 SFCs/10^6 CD8+ T cells; shared by both ZIKV strains

| Sequence | immunodominance in IFNγ ELISPOT |
| --- | --- |
| VPRTDNITL [FSS-NS2A133-141] | immunodominant |

system: CD8+ T cells; test: IFNγ ICS, DENV2 S221-infected Ifnar-/- HLA-B*0702 transgenic mice; type: cell-based, mouse; settings: HLA-B*0702 mice, 7 days after DENV2 S221, ICS
Method: as §1
(§3) Spleens were harvested from virus-infected, mock-immunized, or peptide-immunized mice. 1×10^6 splenocytes were plated in each well of 96-well U-bottom plates and stimulated with individual peptide (10 μg crude peptide or 1 μg pure peptide per well) for 6 hours. Five hours before the end of incubation, Brefeldin A (GolgiPlug; BD Biosciences) and PE-conjugated anti CD107a mAb (clone 1D4B, eBioscience) were added to the cells. Splenocytes stimulated with PMA-ionomycin were used as the positive control, while cells without any stimulation were the negative control. […] Samples were run using an LSR™ II (BD Biosciences) and analyzed using FLOWJO™ software X 10.0.7 (Tree Star, Ashland, Oreg.).
(§4) The following results are with respect to FIG. 14A and FIG. 14B, where Ifnar^−/− HLA-B*0702 transgenic mice were infected R.O. with 2×10^4 FFU of DENV2 strain S221 for 7 days. CD8^+ T cells isolated from splenocytes were stimulated with each of the 37 ZIKV epitopes identified via IFNγELISPOT to perform (FIG. 14A) IFNγELISPOT and (FIG. 14B) ICS assay. Data represent the average of two independent IFNγELISPOT experiments and two independent ICS experiments (n=7 mice) and are expressed as mean±SEM. Dotted line corresponds to the cutoff value. *, P<0.05.

| Sequence | % IFNγ+ CD8+ T cells, S221 |
| --- | --- |
| VPTGRTTVV (VPTGRTTW) [FSS/MR-NS5539-546] | (0.18%) |

same assay, conditions: HLA-B*0702 mice, DENV2 S221, 7 days

| Sequence | ZIKV/DENV cross-reactivity in DENV2-infected mice (IFNγ ELISPOT and IFNγ ICS) |
| --- | --- |
| VPTGRTTVV (VPTGRTTW) [FSS/MR-NS5539-546] | positive in both IFNγ ELISPOT and IFNγICS assays |

system: CD8+ T cells; test: ICS, DENV2-immune Ifnar-/- HLA-B*0702 mice challenged with ZIKV FSS13025; type: cell-based, mouse; settings: day 3 after ZIKV FSS13025 challenge
Method: as §1
Spleens were harvested from virus-infected, mock-immunized, or peptide-immunized mice. 1×10^6 splenocytes were plated in each well of 96-well U-bottom plates and stimulated with individual peptide (10 μg crude peptide or 1 μg pure peptide per well) for 6 hours. Five hours before the end of incubation, Brefeldin A (GolgiPlug; BD Biosciences) and PE-conjugated anti CD107a mAb (clone 1D4B, eBioscience) were added to the cells. Splenocytes stimulated with PMA-ionomycin were used as the positive control, while cells without any stimulation were the negative control. After incubation, cells were first stained with PERCPCY™ 5.5-conjugated anti-CD3 mAb (Clone 145-2C11, TONBO), PE-CY7™-conjugated anti-CD8 mAb (clone 53-67, BD Biosciences), EFLUOR™ 450-conjugated anti-CD44 mAb (clone IM7, eBioscience), and APC eFluor 780-conjugated anti-CD62L mAb (clone Mel-14, eBioscience). Cells were then fixed and permeabilized using CYTOFIX/CYTOPERM™ solution (BD Biosciences), followed by staining with FITC-conjugated anti-IFNγ mAb (clone XMG 1.2, TONBO) and APC-conjugated anti-TNFα mAb (clone MP6-XT22, eBioscience). Samples were run using an LSR™ II (BD Biosciences) and analyzed using FLOWJO™ software X 10.0.7 (Tree Star, Ashland, Oreg.).
The following results are with respect to FIG. 11 to FIG. 11E, where Ifnar^−/− HLA-B*0702 transgenic mice were inoculated I.P. with 2×10^3 FFU of DENV2 strain S221 for 4 weeks. Naive mice (n=5) and DENV2 strain S221-immune mice (n=5) were challenged R.O. with 1×10^4 FU of ZIKV FSS13025 for three days, and the percentages of peptide-specific IFNγ^+ and/or TNFα^+ CD8^+ T cells were detected by ICS (FIG. 11A and FIG. 11B). […] Data were expressed as mean±SEM. *, P<0.05; **, P<0.01; Two-tailed ann-Whitney test. Black “*” indicates ZIKV-specific response while bold “*” represents ZIKV/DENV cross-reactive response. All positive peptides were grouped according the ZIKV specificity of immune response (FIG. 11E). Numbers in parentheses indicate the number of positive peptides in this group.

| Sequence | percentage of epitope-specific IFNγ-producing CD8+ T cells |
| --- | --- |
| VVMILGGFSM [MR-NS2A31-40] | 0.42±0.12% |

system: CD44+CD62L- CD8+ T cells; test: ICS, peptide-immunized Ifnar-/- HLA-B*0702 mice challenged with ZIKV; type: cell-based, mouse; settings: mice immunized with the 3 ZIKV immunodominant epitopes, day 3 after ZIKV challenge
Description: Two HLA-B*0702-binding ZIKV-specific peptides (FSS-NS2A133-141(SEQ ID NO: 41) and FSS/MR766-NS2B68-75 (SEQ ID NO: 45)) and four ZIKV/DENV cross-reactive peptides (FSS/MR766-NS4B426-435 (SEQ ID NO: 60), FSS/MR766-NS2A75-84 (SEQ ID NO: 39), FSS/MR766-NS3206-215 (SEQ ID NO: 47), and FSS/MR766-NS3574-582 (SEQ ID NO: 52)) were chosen for synthesis. Five HLA-A*0101-binding peptides (FSS/MR-E159-167 (SEQ ID NO: 70), FSS/MR-E195-203 (SEQ ID NO: 71), FSS/MR-NS123-31 (SEQ ID NO: 74), FSS/MR-NS4B231-239 (SEQ ID NO: 77), and FSS/MR-NS5509-517 (SEQ ID NO: 79)) were chosen for synthesis. Mice (both female and male; 5-6 weeks of age) were immunized subcutaneously with a mixture of HCV helper peptide (100 μg/mouse) and 3 or 4 HLA-B*0702-binding peptides (50 μg/peptide/mouse) emulsified in Complete Freund's Adjuvant (CFA). Mock group mice received the same immunization strategy but without any ZIKV-specific or ZIKV/DENV cross-reactive peptide. On the 21st day, mice were boosted with the same peptide mixtures emulsified in Incomplete Freund's Adjuvant (IFA). […] Three days post ZIKV infection mice were sacrificed, and serum and spleen were harvested. The splenocytes were used for ICS assay. After cardiac perfusion with PBS, brain was harvested. The levels of infectious ZIKV in serum and brain were measured using FFA.
as §3
Peptide groups received corresponding peptide immunizations as described in Materials and Methods. […] CD3^+CD8^+CD44^+CD62L− T cells were gated and the percentages of IFNγ^+ and/or TNFα^+ cells in a representative mouse from mock (FIG. 12A) and peptide (FIG. 12B) groups were determined by ICS. The levels of infectious ZIKV in sera and brains were measured via FFA. Data were expressed as mean±SEM. *, P<0.05; **, P<0.01; ***, P<0.001. Two-tailed Mann-Whitney test.

| Sequence | percentage of IFNγ-producing cells among antigen experienced (CD44+CD62L-) CD8+ T cells |
| --- | --- |
| VPRTDNITL [FSS-NS2A133-141] | 0.86%±0.71 |

system: CD8+ T cells; test: IFNγ ELISPOT, DENV2 S221-infected Ifnar-/- HLA-B*0702 transgenic mice; type: cell-based, mouse; settings: HLA-B*0702 mice, 7 days after 2×10^4 FFU DENV2 S221
Method: as §1, §2, §4

| Sequence | SFC/10^6 CD8+ T cells, S221 |
| --- | --- |
| LPEIVREAI [FSS/MR-NS3188-196] | 63 SFC/10^6 CD8+ T cells |
| RVCSDHAAL [FSS/MR-NS3581-589] | 44 SFC/10^6 CD8+ T cells |
| VPTGRTTVV (VPTGRTTW) [FSS/MR-NS5539-546] | 54 SFC/10^6 CD8+ T cells |
| VVMILGGFSM [MR-NS2A31-40] | 51 SFC/10^6 CD8+ T cells |

system: CD3+CD8+ T cells; test: IFNγ ICS, ZIKV-infected Ifnar-/- HLA-B*0702 transgenic mice; type: cell-based, mouse; settings: HLA-B*0702 mice, 7 days after ZIKV FSS13025, ICS
Method: as §1, §3
Data represent the average of two independent experiments and are expressed as mean±SEM. *, P<0.05; **, P<0.01; Two-tailed Mann-Whitney test. P/I denotes PMA/ionomycin.

| Sequence | % IFNγ+ CD8+ T cells, FSS13025 |
| --- | --- |
| VPRTDNITL [FSS-NS2A133-141] | (0.9%) |

same assay, conditions: HLA-B*0702 mice, 7 days after ZIKV MR766, ICS

| Sequence | % IFNγ+ CD8+ T cells, MR766 |
| --- | --- |
| LPEIVREAI [FSS/MR-NS3188-196] | (0.23%) |
| RVCSDHAAL [FSS/MR-NS3581-589] | (0.31%) |
| VPRTDNITL [FSS-NS2A133-141] | (1.07%) |
| VPTGRTTVV (VPTGRTTW) [FSS/MR-NS5539-546] | (0.25%) |
| VVMILGGFSM [MR-NS2A31-40] | (0.37%) |
